Earlier results as cited in patent US20140271816A1, “TREATMENT OF POTENTIAL PLATELET AGGREGATION WITH LIPOSOMALLY FORMULATED GLUTATHIONE AND CLOPIDOGREL” (priority 2013, published 2014).
Read-outs that look alike come from different tables or passages of the source.

Columns and labels:
[1] = oral, 75 mg clopidogrel (base)
[2] = rat; for toxin remaining: Co-60 in liver
[3] = humans, plain non-formulated glutathione

CC(=O)N[C@@H](CS)C(=O)O [NAC, N-Acetyl cysteine]
activity in forming the AM relative to GSH (percent of the activity of GSH): less than 10%

COC(=O)[C@H](c1ccccc1Cl)N1CCc2sccc2C1 [Clopidogrel, clopidogrel]
peak plasma levels of the main circulating metabolite [1]: approx. 3 mg/L | time of peak plasma levels after dosing ([1]; main circulating metabolite): approximately one

N[C@@H](CCC(=O)N[C@@H](CS)C(=O)NCC(=O)O)C(=O)O [Plain glutathione, reduced glutathione]
toxin remaining ([2]; intravenous administration): 36% | toxin remaining ([2]; oral administration): 100% | removal of toxin / radiotagged marker (Co-60) from the liver ([2]; intravenous administration): 64% | removal of toxin / radiotagged marker (Co-60) from the liver ([2]; oral administration): 0% | removal of toxin / radiotagged marker (Co-60) from the liver ([2]; oral administration, listed as plain GSH): no function | absorption after oral administration ([3]; listed as glutathione): not absorbed well | absorption after oral administration ([3]; listed as plain GSH): not absorbed | absorption after oral administration ([3]; listed as plain glutathione): not absorbed | rank as reducing agent needed to form the active metabolites of clopidogrel (ex vivo studies): best reducing agent
